Reference: patent US20200247855A1, “THERAPY AND DIAGNOSTICS” (OXFORD UNIVERSITY INNOVATION LIMITED, priority 2017, published 2020)
Residues, ends and D or L forms follow the SMILES beside them. No end group written: not given here. *: point of attachment. FITC = O=C1OC2(c3ccc(O)cc3Oc3cc(O)ccc32)c2ccc(NC(=S)*)cc21

Experiments:
Format in all cases: binding
[1] = target: T1, CCL8 (Homo sapiens, UniProt P80075); assay: Fluorescence polarisation (anisotropy) assay; settings: labelled peptide 50 nM, CCL8 1 μM
T1 construct: SUMO (in-house protein only) (cleaved yes); made in house; host or cells: Escherichia coli RosettaGami 2 (DE3)
T1 sequence (P80075 24-99): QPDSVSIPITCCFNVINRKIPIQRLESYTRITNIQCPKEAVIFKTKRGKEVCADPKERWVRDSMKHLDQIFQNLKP
Description: FIG. 14. Characterisation of P672_PEP-FITC by fluorescence polarisation. […] Residue C30 was mutated to A to avoid an unpaired cysteine residue. The residues corresponding to the above peptide are wholly contained within the CCL8-binding region of P672_RHIPU transferred in the hybrid evasin P672:EVA1 (SEQ ID 76, see FIG. 5). […] (SEQ ID NO: 90). FIG. 14(A). […] The curve was fitted to the two site-total and non-specific binding model in GraphPad Prism 6. Data are shown as mean and SEM of three independent experiments, with each independent experiment performed as three technical replicates. The affinity constant Kd was calculated in GraphPad Prism from the curve fit with the standard error reported.
FIG. 14(B). […] The measured fluorescence anisotropy (y-axis) of P672_PEP-FITC (50 nM) following binding to a fixed dose (1 μM)) of CCL7, CCL8, CCL18 and CXCL1 (negative control). […] Statistical significance was determined using one-way ANOVA with Sidak's correction for multiple comparisons using Graph Pad Prism 6. **=p<0.005, ****=P<0.00005, ns=not significant.
FIG. 15(C). […] In each case 100 μM (++) or […] (+) of P672_PEP was incubated with P672_PEP-FITC (50 nM)/chemokine (1 μM CCL7 and CCL18; 500 nM CCL8) and the resulting anisotropy measured. […] Experiment carried out in triplicate where each data point is the average of one experiment carried out in technical triplicate. Mean with SEM shown and statistical significance was determined using one-way ANOVA with Sidak's correction for multiple comparisons using Graph Pad Prism 6. *=p<0.05, ***=p<0.0005, ****=P<0.00005, ns=not significant.
Fluorescence polarization assays were performed using a Clariostar (BMG Tech) plate reader with the supplied FITC excitation and emission filters using 96 half area well plates (Corning). The buffer used (FP assay buffer) was 50 mM HEPES, 150 mM NaCl, 0.1% BSA, 0.002% TWEEN-20, 0.2% DMSO, pH 7.4 and the final volume in each well was 30 μL. Polarization was converted to anisotropy using the equation A=(2*P)/(3−P) where P is polarization and A is anisotropy. For each peptide tested the gain was set to 35 mP and adjusted to a well containing fluorescent peptide only. The polarization of the emitted light in the FITC emission channel was then determined. Experiments were performed as two technical and three biological replicates. Screening of P672 peptide fragments was achieved through incubation of each peptide (50 nM) with 1 μM CCL8 (Peprotech) for 30 minutes in FP assay buffer and the resulting anisotropy of the emitted light determined as above. The chemokine cross binding screen was performed by incubating 1 μM chemokine (Peprotech) with 50 nM BK1.1FITC for half an hour in FP assay buffer and the resulting anisotropy of the emitted light determined as above. […] The anisotropy was plotted as a function of CCL8 concentration and fitted to the equation: Y=Bmax*X/(KD+X)+NS*X+Background, where Y is the measured anisotropy, X is the concentration of CCL8 added, Bmax is the maximum binding, KD is the equilibrium dissociation constant, NS is the slope of the nonlinear regression and Background is the anisotropy when no CCL8 is present, in Graph Pad Prism. Displacement assays were carried out with CCL7, CCL8, and CCL18 (Peprotech, 1 μM). […] For all FP assays, the experiments were carried out as two technical and three biological replicates.

[2] = target: T2, CCL18 (Homo sapiens, UniProt P55774); assay: Fluorescence polarisation (anisotropy) assay; settings: labelled peptide 50 nM, chemokine 1 μM
T2 construct: purchased Peprotech
T2 sequence (P55774 21-89): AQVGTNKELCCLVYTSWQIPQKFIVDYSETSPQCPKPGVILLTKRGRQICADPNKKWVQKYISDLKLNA
Protocol: (§1) FIG. 14(B). Fluorescence polarisation assay showing binding of chemokines to P672_PEP-FITC. The measured fluorescence anisotropy (y-axis) of P672_PEP-FITC (50 nM) following binding to a fixed dose (1 μM)) of CCL7, CCL8, CCL18 and CXCL1 (negative control). […] Statistical significance was determined using one-way ANOVA with Sidak's correction for multiple comparisons using Graph Pad Prism 6. **=p<0.005, ****=P<0.00005, ns=not significant.
(§2) FIG. 15(C). Displacement of P672_PEP-FITC from CCL18 by P672_PEP. In each case 100 μM (++) or […] (+) of P672_PEP was incubated with P672_PEP-FITC (50 nM)/chemokine (1 μM CCL7 and CCL18; 500 nM CCL8) and the resulting anisotropy measured. A peptide with the P672_PEP sequence scrambled ([…]) served as a negative control (P672_PEP_SCRAM; […]). Experiment carried out in triplicate where each data point is the average of one experiment carried out in technical triplicate. Mean with SEM shown and statistical significance was determined using one-way ANOVA with Sidak's correction for multiple comparisons using Graph Pad Prism 6. *=p<0.05, ***=p<0.0005, ****=P<0.00005, ns=not significant.
(§3) Fluorescence polarization assays were performed using a Clariostar (BMG Tech) plate reader with the supplied FITC excitation and emission filters using 96 half area well plates (Corning). The buffer used (FP assay buffer) was 50 mM HEPES, 150 mM NaCl, 0.1% BSA, 0.002% TWEEN-20, 0.2% DMSO, pH 7.4 and the final volume in each well was 30 μL. Polarization was converted to anisotropy using the equation A=(2*P)/(3−P) where P is polarization and A is anisotropy. For each peptide tested the gain was set to 35 mP and adjusted to a well containing fluorescent peptide only. The polarization of the emitted light in the FITC emission channel was then determined. Experiments were performed as two technical and three biological replicates. Screening of P672 peptide fragments was achieved through incubation of each peptide (50 nM) with 1 μM CCL8 (Peprotech) for 30 minutes in FP assay buffer and the resulting anisotropy of the emitted light determined as above. The chemokine cross binding screen was performed by incubating 1 μM chemokine (Peprotech) with 50 nM BK1.1FITC for half an hour in FP assay buffer and the resulting anisotropy of the emitted light determined as above. To monitor BK1.1FITC Ala mutants of binding to CCL8, 50 nM labelled peptide was incubated with varying concentrations of recombinant CCL8 (0-25 μM, final) in 30 μL FP assay buffer for 30 minutes and the resulting anisotropy of the emitted light determined as above. The anisotropy was plotted as a function of CCL8 concentration and fitted to the equation: Y=Bmax*X/(KD+X)+NS*X+Background, where Y is the measured anisotropy, X is the concentration of CCL8 added, Bmax is the maximum binding, KD is the equilibrium dissociation constant, NS is the slope of the nonlinear regression and Background is the anisotropy when no CCL8 is present, in Graph Pad Prism. Displacement assays were carried out with CCL7, CCL8, and CCL18 (Peprotech, 1 μM). […] For all FP assays, the experiments were carried out as two technical and three biological replicates.

[3] = target: T3, CCL7 (Homo sapiens, UniProt P80098); assay: Fluorescence polarisation (anisotropy) assay; settings: labelled peptide 50 nM, chemokine 1 μM
T3 construct: purchased Peprotech
T3 sequence (P80098 24-99): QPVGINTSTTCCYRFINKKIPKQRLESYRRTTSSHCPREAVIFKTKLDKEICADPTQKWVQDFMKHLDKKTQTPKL
Protocol: as §1, §2, §3

[4] = target: T4, CXCL1 (Homo sapiens, UniProt P09341); assay: Fluorescence polarisation (anisotropy) assay; settings: labelled peptide 50 nM, chemokine 1 μM; negative control chemokine
T4 sequence (P09341 35-107): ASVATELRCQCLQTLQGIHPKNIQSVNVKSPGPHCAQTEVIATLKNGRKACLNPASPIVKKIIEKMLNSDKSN
Protocol: as §1
Fluorescence polarization assays were performed using a Clariostar (BMG Tech) plate reader with the supplied FITC excitation and emission filters using 96 half area well plates (Corning). The buffer used (FP assay buffer) was 50 mM HEPES, 150 mM NaCl, 0.1% BSA, 0.002% TWEEN-20, 0.2% DMSO, pH 7.4 and the final volume in each well was 30 μL. […] The polarization of the emitted light in the FITC emission channel was then determined. […] Screening of P672 peptide fragments was achieved through incubation of each peptide (50 nM) with 1 μM CCL8 (Peprotech) for 30 minutes in FP assay buffer and the resulting anisotropy of the emitted light determined as above. The chemokine cross binding screen was performed by incubating 1 μM chemokine (Peprotech) with 50 nM BK1.1FITC for half an hour in FP assay buffer and the resulting anisotropy of the emitted light determined as above. […]

[5] = target: T5, His-tagged P672-biotinylated CCL2 interaction (Homo sapiens, UniProt P13500); assay: AlphaScreen disruption of P672:chemokine interaction; settings: AlphaScreen, peptide 100 μM
T5 construct: host or cells: P672: HEK293F (in-house); biotinylated CCL2: not described
T5 sequence (P13500 24-99): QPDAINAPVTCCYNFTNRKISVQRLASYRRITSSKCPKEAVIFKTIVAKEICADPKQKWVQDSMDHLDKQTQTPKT
Protocol: (§4) B-D. Effect of indicated peptides at a concentration of 100 μM on a His-tagged P672-biotinylated CCL8, CCL2 or CCL3 interaction respectively using an AlphaScreen assay. In each panel. […] Data are presented as mean±s.e.m. of three independent experiments, shown as individual data points.
(§5) Data are shown as mean of two technical replicates. Curves were fitted with 4 parameters to estimate IC50.
(§6) The binding of these peptides to CCL8 was assayed by examining their ability to disrupt the P672:CCL8 interaction using an AlphaScreen assay (FIG. 20E, H). […] BK1 derivatives were tested for their ability to inhibit P672 interactions with CCL2 and CCL3 using AlphaScreen (FIG. 20 F, G, I, J).
(§7) AlphaScreen® Histidine detection kit was purchased from PerkinElmer (6760619M lot: 2457886) and the assay was set up in white bottom Proxiplate™ 384 Plus microplates (PerkinElmer) following the manufacturer's instructions. The assay buffer used was 50 mM HEPES, 150 mM NaCl, 0.1% BSA, 0.01% Tween20, 1% DMSO, pH 7.5 and the final volume in each well was 20 μL. Briefly, biotinylated chemokine (recombinant, final concentration 1.25 nM (CCL8), 5 nM (CCL2) and 2.5 nM (CCL3)) was pre-incubated at room temperature for 15 min with different concentrations of each peptide. His-tagged P672 (final concentration 2.5 nM (CCL8), 5 nM (CCL2) and 1.25 nM (CCL3)) was then added to each well and the plate was incubated at room temperature for 30 min. Finally, acceptor and donor beads were added as a 1:1 suspension in buffer to each well and the plate was further incubated at RT for 1 h. Data was obtained by reading the plate using a Pherastar FSX plate reader (excitation 680 nm, emission 570 nm) and was analysed using GraphPad Prism.

[6] = target: T6, His-tagged P672-biotinylated CCL3 interaction (Homo sapiens, UniProt P10147); assay: as above; settings: AlphaScreen, peptide 100 μM
T6 construct: host or cells: P672: HEK293F (in-house); biotinylated CCL3: not described
T6 sequence (P10147 24-92): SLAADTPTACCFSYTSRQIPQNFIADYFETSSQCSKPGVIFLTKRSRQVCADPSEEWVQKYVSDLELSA
Protocol: as §4, §5, §6, §7

[7] = target: T7, His-tagged P672-biotinylated CCL8 interaction (Homo sapiens, UniProt P80075); assay: as above; settings: peptide 100 μM
T7 construct: SUMO (cleaved yes); biotin (enzymatic, BirA co-expression); made in house; host or cells: CCL8: Escherichia coli RosettaGami 2 (DE3); P672: HEK293F
T7 sequence (P80075 24-99): T1 sequence (P80075 24-99)
Protocol: as §4, §5, §6, §7

CC(C)[C@H](NC(=O)[C@@H]1CCCN1C(=O)[C@H](CCCCN)NC(=O)[C@H](Cc1ccccc1)NC(=O)[C@H](Cc1ccccc1)NC(=O)[C@H](CC(=O)O)NC(=O)[C@H](CCC(=O)O)NC(=O)[C@H](Cc1ccc(O)cc1)NC(=O)[C@H](CC(=O)O)NC(=O)[C@H](CCC(=O)O)NC(=O)[C@H](CC(=O)O)NC(=O)[C@H](CCC(=O)O)NC(=S)Nc1ccc2c(c1)C(=O)OC21c2ccc(O)cc2Oc2cc(O)ccc21)C(=O)N[C@H](C(=O)N[C@@H](C)C(=O)N[C@@H](Cc1ccc(O)cc1)C(=O)N[C@@H](Cc1ccccc1)C(N)=O)[C@@H](C)O [BK1.1FITC] ({FITC}-EDEDYEDFFKPVTAYF-NH2)
Binding to CCL8 (change in anisotropy) [1]: significant increase in anisotropy
Binding to CCL8 (change in anisotropy) ([1]; listed as BK1.1FTC): increase in anisotropy
Binding to CCL8 (change in anisotropy) ([1]; listed as P672_PEP-FITC): able to bind
Binding to CCL18 (change in anisotropy) [2]: significant increase in anisotropy
Binding to CCL18 (change in anisotropy) ([2]; listed as P672_PEP-FITC): able to bind
Binding to CCL7 (change in anisotropy) [3]: significant increase in anisotropy
Binding to CCL7 (change in anisotropy) ([3]; listed as P672_PEP-FITC): able to bind
Binding to CXCL1 (change in anisotropy) [4]: not

Y21F32: shorter peptide Y21-F32 of P672 without the C30A mutation (YEDFFKPVTCYF-NH2)
Disruption of the P672-CCL2 interaction [5]: disrupted
Disruption of the P672-CCL3 interaction [6]: disrupted
Disruption of the P672-CCL8 interaction [7]: significantly disrupt
